Common to all, as to assay type: in vivo, mice
Assay [1] deals with basic fibroblast growth factor (bFGF). Kind of assay: Endogenous basic fibroblast growth factor (bFGF) in the wound. The settings on record: day 10 after wound; average; p≦0.05. Here is the method:
FIG. 1 is a graph of endogenous basic fibroblast growth factor (bFGF)(pg/cm2) over time (days after wounding) of mice treated with TNP-470 (solid circles) and controls that were not treated (open circles). Full thickness mouse wounds were made in adult mice, the majority of whom were six to eight weeks old and some of whom were fourteen to sixteen weeks old. Mice were pretreated for sixty days with TNP-470, then wounds were made, and healing monitored. Mice were treated with 30 mg/kg TNP-470 administered subcutaneously every other day. Mice were treated essentially the same as described in Example 1.

A further assay concerns full thickness wounds. Kind of assay: Wound closure / contraction of full thickness wounds. An excerpt:
FIG. 2 is a graph of percent wounds open over time (days after wounding) for mice treated with TNP-470 for different dosage regimes: pretreatment days −60 to day 0; treated with TNP-470 days 5 to 18; treated with TNP-470 days 0 to 18; and treated with TNP-470 days 0, 2 and 4. Full thickness mouse wounds were made in adult mice, the majority of whom were six to eight weeks old and some of whom were fourteen to sixteen weeks old. Mice were pretreated for sixty days with TNP-470, then wounds were made, and healing monitored. Mice were treated with 30 mg/kg TNP-470 administered subcutaneously every other day. Mice were treated essentially the same as described in Example 1. Histological analysis of the wounds in the control and treated mice compared contraction of full thickness wounds in mice treated with systemic TNP-470 (AGM 1470), every other day after the wound is made, with untreated mice. Treatment with TNP-470 every other day after the wound is made (at a dose identical to that which results in maximal tumor inhibition) causes a 5-day delay in the complete contraction of the wound.

A further assay has as its system linear wounds. Kind of assay: Breaking strength (tensile strength) of linear wounds. The settings on record: for inhibition of breaking strength: systemic, FIG. 3, n=280 mice, statistically significant. The method, then:
FIG. 3 is a graph of breaking strength (tensile strength) of linear wounds after systemic administration of TNP-470 days −20 to 0; days 0 to 4; days 0 to 12; days 5 to 12; and control, measured on days 4, 7 and 12 after wounding. Mice were treated essentially the same as described in Example 1. FIG. 3 (n=280 mice)graphs breaking strength of linear wounds after systemic administration of TNP-470. Breaking strength was inhibited 36% on post wound day 7 and 43% on post wound day 12. This was statistically significant. The wounds were inhibited if TNP-470 was given on post wound days 0, 2, 4 or post wound days 0, 2, 4, 6, 8, and 10.

The test system of assay [2] is full thickness mouse wounds. Kind of assay: Histology of full thickness mouse wounds (hematoxylin and eosin) after TNP-470 treatment. The method, then: Full thickness mouse wounds were made in adult mice, the majority of whom were six to eight weeks old and some of whom were fourteen to sixteen weeks old. Mice were pretreated for sixty days with TNP-470, then wounds were made, and healing monitored. Mice were treated with 30 mg/kg TNP-470 administered subcutaneously every other day. Histological micrographs of open mouse wounds harvested at 7, 12, and 17 days post excision were made. The biopsies were fixed, embedded, sectioned and stained with hematoxylin and eosin.

[3] abbreviates: given on post wound days 0, 2, 4, or post wound days 0, 2, 4, 6, 8, and 10.
The mark [4] stands for this setting: 17 days post excision, vs untreated.

As for `CO[C@@H]1[C@H](OC(=O)NC(=O)CCl)CC[C@]2(CO2)[C@H]1[C@@]1(C)O[C@@H]1CC=C(C)C` [TNP-470, 0-chloroacetylcarbamoyl-Fumagillol], in assay [1], the “reduction of bFGF concentration in wound” value is 37%. Moreover, in the assay with full thickness wounds (FIG. 2, n=440 mice, statistically significant), the “wound healing slowed, time to full contraction” value turned out to be 5 days. Further, in the assay on full thickness wounds (setting [3]), the wound healing entry is listed as “remained inhibited”. The “delay in the complete contraction of the wound” value in the assay with full thickness wounds (systemic, every other day after the wound is made, dose of maximal tumor inhibition) turned out to be 5 days. Moreover, in the assay on linear wounds (setting [3]), the “breaking strength of wounds” value is given as “inhibited”. Moreover, the entries for the “inhibition of breaking strength” value in the assay on linear wounds (post wound day 7) and in the assay on linear wounds (post wound day 12) were 36% and 43%, respectively. Further, the “blood vessels in healing wound granulation tissue” value in assay [2] (7 days post excision, 30 mg/kg s.c. every other day, vs untreated) is listed as “relatively lower density of blood vessels”. In addition, in assay [2] (12 days post excision, wound not completely closed, vs untreated), the “blood vessels in granulation tissue under re-epithelialized surface” value is recorded as “fewer vessels with smaller diameters”. For the same molecule, the “blood vessels in mature granulation tissue of healed wound” value in assay [2] (setting [4]) is reported as “reduction in the number of vessels”. In assay [2] (setting [4]), the “density of mesenchymal cells in granulation tissue” value is given as “continued higher density of mesenchymal cells”. Moreover, the “scar formation (histologic findings)” value in assay [2] (overall, 7, 12 and 17 days) is on record as “severely retarded scar formation”.

Values taken from patent US6638949B1, “Prevention of adhesions and excessive scar formation using angiogenesis inhibitors” (priority 1997, dated 2003).
